Results taken from patent publication US8178506B2, “Oligomeric compounds and compositions for use in modulation of small non-coding RNAs” (Regulus Therapeutics Inc., priority 2003, dated 2012).
In the oligonucleotide strings, read from the 5' end, every base follows the letter of its sugar. An asterisk marks phosphorothioate; unmarked linkages are phosphodiester. Other units and linkages are bracketed, terminal groups are in braces. A string of capitals states the bases alone. e = 2'-O-(2-methoxyethyl) (MOE); [5mC] = 5-methylcytosine; d = 2'-deoxy (DNA)

Key:
follistatin = assay: Follistatin mRNA expression in HepG2 cells; format: cell-based, human; conditions: for Follistatin mRNA: Experiment 1, basal (no insulin), four hours, UTC = 100; for Follistatin mRNA expression: Experiment 2, insulin treated: HepG2 cells transfected with oligomeric compound, 1 nM insulin for four hours, UTC + 1 nM insulin = 100
Protocol: (§1) Approximately 28 hours after transfection, the cells are subjected to serum starvation for a period of 12 to 16 hours, using serum-free growth medium. Following serum starvation, cells are treated with 1 nM insulin (insulin-treated) or are left untreated (basal conditions) for approximately four hours. At the same time, untreated control cells in both plates are treated with 100 nM insulin to determine the maximal insulin response. Following insulin treatment (forty-eight hours after transfection), total RNA is harvested from all samples, and the amount of total RNA from each sample is determined using a Ribogreen assay (Invitrogen Corporation, Carlsbad, Calif.). Real-time PCR is performed on the total RNA samples using primer/probe sets for three insulin responsive genes: insulin-like growth factor binding protein-1 (IGFBP-1), cytosolic PEPCK (PEPCK-C), and follistatin. Gene expression levels obtained by real-time PCR are normalized for total RNA content in the samples.
(§2) Oligomeric compounds of the present invention were tested for their effects on insulin signaling in HepG2 cells. HepG2 cells were plated at 7500 cells/well in collagen coated 96-well plates. The following day, cells were transfected with oligomeric compounds targeting miRNAs using 100 nM oligomeric compound in LIPOFECTIN™ (Invitrogen Corporation, Carlsbad, Calif.) in two 96-well plates. The oligomeric compounds were tested in triplicate on each 96-well plate, except for positive and negative controls, which were measured up to six times per plate. At the end of transfection, the transfection medium was replaced by regular growth medium. Twenty-eight hours post-transfection, the cells were subjected to overnight (sixteen to eighteen hours) serum starvation using serum free growth medium. Forty-four hours post-transfection, the cells in the transfected wells were treated with either no insulin (“basal” Experiment 1, for identification of insulin-mimetic compounds) or with 1 nM insulin (“insulin treated” Experiment 2, for identification of insulin sensitizers) for four hours. At the same time, in both plates, cells in some of the un-transfected control wells are treated with 100 nM insulin to determine maximal insulin response. At the end of the insulin or no-insulin treatment (forty-eight hours post-transfection), total RNA is isolated from both the basal and insulin treated (1 nM) 96-well plates, and the amount of total RNA from each sample is determined using a Ribogreen assay (Molecular Probes, Eugene, Oreg.). Real-time PCR is performed on all the total RNA samples using primer/probe sets for three insulin responsive genes: PEPCK-c, IGFBP-1 and follistatin. Expression levels for each gene are normalized to total RNA, and values+standard deviation are expressed relative to the transfectant only untreated control (UTC) and negative control compounds.
(§3) Protocols for treatment of HepG2 cells and transfection of oligomeric compounds are as described in Example 18. Also as described in Example 18, forty-four hours post-transfection, the cells in the transfected wells were treated with either no insulin (“basal” Experiment 3 (below), for identification of insulin-mimetic compounds) or with 1 nM insulin (“insulin treated” Experiment 4 (below), for identification of insulin sensitizers) for four hours. At the same time, in both plates, cells in some of the un-transfected control wells are treated with 100 nM insulin to determine maximal insulin response. At the end of the insulin or no-insulin treatment (forty-eight hours post-transfection), total RNA is isolated from both the basal and insulin treated (1 nM) 96-well plates, and the amount of total RNA from each sample is determined using a Ribogreen assay (Molecular Probes, Eugene, Oreg.).

IGFBP-1 = IGFBP-1 mRNA expression in HepG2 cells; format: cell-based, human; conditions: for IGFBP1 mRNA: Experiment 1, basal (no insulin), four hours, UTC = 100; for IGFBP1 mRNA expression: Experiment 2, insulin treated: HepG2 cells transfected with oligomeric compound, 1 nM insulin for four hours, UTC + 1 nM insulin = 100
Protocol: as §1, §2, §3

PEPCK-c = PEPCK-c mRNA expression in HepG2 cells; format: cell-based, human; conditions: for PEPCKc mRNA: Experiment 1, basal (no insulin), four hours, UTC = 100; for PEPCKc mRNA expression: Experiment 2, insulin treated: HepG2 cells transfected with oligomeric compound, 1 nM insulin for four hours, UTC + 1 nM insulin = 100
Protocol: as §1, §2, §3

PPARγ = PPARγ mRNA expression in adipocytes (real-time PCR); format: cell-based, human; conditions: differentiating adipocytes transfected with oligomeric compound; Table 75
Glut4 = Glut4 mRNA expression in adipocytes (real-time PCR); format: cell-based, human; conditions: differentiating adipocytes transfected with oligomeric compound; Table 75
adipocytes = assay: Triglyceride accumulation assay in adipocytes; format: cell-based, human; conditions: differentiating adipocytes transfected with oligomeric compound; Table 75
HSL = HSL mRNA expression in adipocytes (real-time PCR); format: cell-based, human; conditions: differentiating adipocytes transfected with oligomeric compound; Table 75
aP2 = aP2 mRNA expression in adipocytes (real-time PCR); format: cell-based, human; conditions: differentiating adipocytes transfected with oligomeric compound; Table 75
[1] = tested on: BJ, B16-F10, T47D, T47Dp53 and HeLa cells; assay: Cell cycle assay (propidium iodide flow cytometry), cell line panel; format: cell-based; conditions: 150 nM oligomeric compound, 4.5 μg/ml LIPOFECTIN, after 72 hours, propidium iodide flow cytometry
[2] = Experiment 3, basal (no insulin), HepG2 cells, 48 hours post-transfection
[3] = Experiment 4, insulin-sensitization: HepG2 cells treated with 1 nM insulin for four hours, 48 h post-transfection, mRNA by real-time PCR

Row | Substance | Follistatin (% UTC) (follistatin; [2]) | Follistatin (% UTC) (follistatin; [3]) | IGFBP-1 (% UTC) (IGFBP-1; [2]) | IGFBP-1 (% UTC) (IGFBP-1; [3]) | PEPCK-c (% UTC) (PEPCK-c; [2]) | PEPCK-c (% UTC) (PEPCK-c; [3]) | Follistatin mRNA expression (follistatin) | IGFBP1 mRNA expression (IGFBP-1) | PEPCKc mRNA expression (PEPCK-c) | other results
1 | 328765 (antisense eG*eA*e[5mC]*eA*eA*dA*d[5mC]*dT*d[5mC]*dA*dG*d[5mC]*dT*dA*dT*eA*eT*eT*eG*eT) [compound 328765] | 87 | 97 | 88 | 94 | 93 | 73 |  |  |  | 
2 | 341801 (antisense CCUAUCUCCCCUCUGGACC; all 2'-MOE, all phosphorothioate, methylation of C and T or U not given here) [compound 341801] |  |  |  |  |  |  |  |  |  | Follistatin mRNA (follistatin; HepG2 cells): 85; IGFBP1 mRNA (IGFBP-1; HepG2 cells): 99; PEPCKc mRNA (PEPCK-c; HepG2 cells): 73; PPAR gamma mRNA (PPARγ): 82 percentage of untreated control (UTC); GLUT4 mRNA (Glut4): 77 percentage of untreated control (UTC); TG (triglyceride accumulation) (adipocytes): 65 percentage of untreated control (UTC); HSL mRNA (HSL): 89 percentage of untreated control (UTC); aP2 mRNA (aP2): 90 percentage of untreated control (UTC)
3 | 340362 (antisense GACTGTTGAATCTCATGGCA; 5-10-5 gapmer, wing sugar and linkages not given here, further chemistry not given here) [compound 340362] | 123 | 119 | 157 | 129 | 168 | 104 |  |  |  | 
4 | 328779 (antisense eT*eG*eT*eT*eT*dG*dT*d[5mC]*dT*d[5mC]*d[5mC]*dA*dA*dG*dA*eA*eA*e[5mC]*eG*eT) [compound 328779] | 109 | 119 | 135 | 128 | 123 | 78 |  |  |  | 
5 | 328776 (antisense eT*e[5mC]*e[5mC]*eT*eG*dT*dA*dA*dT*dT*dA*dT*dA*dG*dG*e[5mC]*eT*eA*eG*e[5mC]) [compound 328776] |  |  |  |  |  |  | 114 | 86 | 125 | 
6 | 341802 (antisense AGCUGCUUUUGGGAUUCCGUUG; all 2'-MOE, all phosphorothioate, methylation of C and T or U not given here) [compound 341802] |  |  |  |  |  |  |  |  |  | Follistatin mRNA (follistatin; HepG2 cells): 136; IGFBP1 mRNA (IGFBP-1; HepG2 cells): 186; PEPCKc mRNA (PEPCK-c; HepG2 cells): 98; PPAR gamma mRNA (PPARγ): 127 percentage of untreated control (UTC); GLUT4 mRNA (Glut4): 85 percentage of untreated control (UTC); TG (triglyceride accumulation) (adipocytes): 155 percentage of untreated control (UTC); HSL mRNA (HSL): 121 percentage of untreated control (UTC); aP2 mRNA (aP2): 98 percentage of untreated control (UTC)
7 | 328358 (eA*eG*eT*eT*eT*dG*dA*dA*dG*dT*dG*dT*d[5mC]*dA*d[5mC]*eA*eG*e[5mC]*eG*e[5mC]) [compound 328358] |  |  |  |  |  |  | 106 | 165 | 93 | 
8 | 328774 (antisense eG*e[5mC]*eA*e[5mC]*e[5mC]*d[5mC]*dG*d[5mC]*d[5mC]*dT*d[5mC]*dA*d[5mC]*dA*d[5mC]*eA*e[5mC]*eG*eT*eG) [compound 328774] |  |  |  |  |  |  | 68 | 100 | 77 | 
9 | 328769 (antisense eA*eG*eG*e[5mC]*eT*dG*dG*dA*d[5mC]*dA*dG*d[5mC]*dA*d[5mC]*dA*e[5mC]*eA*eA*e[5mC]*e[5mC]) [compound 328769] |  |  |  |  |  |  | 84 | 110 | 100 | 
10 | 328702 (eT*eG*eA*e[5mC]*e[5mC]*dA*d[5mC]*dA*dA*dA*dA*dT*dT*d[5mC]*d[5mC]*eT*eT*eA*e[5mC]*eA; antisense) [compound 328702] |  |  |  |  |  |  | 88 | 83 | 96 | 
11 | 186515 (antisense eA*eG*eG*eT*eA*dG*d[5mC]*dT*dT*dT*dG*dA*dT*dT*dA*eT*eG*eT*eA*eA) [compound 186515] | 67 | 39 | 193 | 105 | 70 | 40 |  |  |  | 
12 | 328343 (eT*e[5mC]*eG*eA*eT*dT*dT*dA*dG*dT*dT*dA*dT*d[5mC]*dT*eA*eA*eA*eA*eA) [compound 328343] |  |  |  |  |  |  | 139 | 135 | 69 | 
13 | 328764 (antisense eA*eG*eA*eT*eG*dT*dT*dT*d[5mC]*dT*dG*dG*d[5mC]*d[5mC]*dT*eG*e[5mC]*eG*eA*eG) [compound 328764] |  |  |  |  |  |  | 128 | 145 | 68 | 
14 | 328773 (antisense eT*eA*e[5mC]*eT*eT*dT*dA*d[5mC]*dT*d[5mC]*d[5mC]*dA*dA*dG*dG*eT*eT*eT*eT*eA) [compound 328773] | 131 | 148 | 148 | 136 | 138 | 93 |  |  |  | G1 (percentage of cells in phase of the cell cycle) [1]: 56.4%; G2/M (percentage of cells in phase of the cell cycle) [1]: 16.7%; S (percentage of cells in phase of the cell cycle) [1]: 26.9%; SubG1 (percentage of cells in phase of the cell cycle) [1]: 2.7%; aneuploid (percentage of cells) [1]: 11.7%
15 | 341813 (antisense AGACACGTGCACTGTAGA; all 2'-MOE, all phosphorothioate, methylation of C not given here) [compound 341813] | 100 | 102 | 137 | 117 | 121 | 88 |  |  |  | 
16 | 341808 (antisense GAACUGCCUUUCUCUCCA; all 2'-MOE, all phosphorothioate, methylation of C and T or U not given here) [compound 341808] |  |  |  |  |  |  |  |  |  | Follistatin mRNA (follistatin; HepG2 cells): 96; IGFBP1 mRNA (IGFBP-1; HepG2 cells): 113; PEPCKc mRNA (PEPCK-c; HepG2 cells): 64
